In the supplement of paper PMC6315032:

Legend:
Experiment in all cases: apparent dissociation constant (pKDapp, Kinobeads competition, Cheng-Prusoff corrected) (-log10 M); higher = tighter binding
Details in all cases: affinity matrix / lysate: Kinobeads, mixed HEK293/K-562/placenta lysate
[1] = target: CSNK1G2 (UniProt P78368)
[2] = target: ROCK2 (UniProt O75116)
[3] = target: AURKC (UniProt Q9UQB9)
[4] = target: RNASEL (UniProt Q05823)
[5] = target: WNK1 (UniProt Q9H4A3)
[6] = target: BRD4 (UniProt O60885)
[7] = target: CDK9 (UniProt P50750)
[8] = target: PRKACB (UniProt P22694)
[9] = target: UHMK1 (UniProt Q8TAS1)
[10] = target: CSNK1G1 (UniProt Q9HCP0)
[11] = target: CSNK1G3 (UniProt Q9Y6M4)
[12] = target: MAP3K10 (UniProt Q02779)
[13] = target: ADCK4 (UniProt Q96D53)
[14] = target: DYRK2 (UniProt Q92630)
[15] = target: ACVRL1 (UniProt P37023)
[16] = target: SIK1 (UniProt P57059)

Measured: apparent dissociation constant (-log10 M)

DYRK2, sequence (Q92630 whole entry): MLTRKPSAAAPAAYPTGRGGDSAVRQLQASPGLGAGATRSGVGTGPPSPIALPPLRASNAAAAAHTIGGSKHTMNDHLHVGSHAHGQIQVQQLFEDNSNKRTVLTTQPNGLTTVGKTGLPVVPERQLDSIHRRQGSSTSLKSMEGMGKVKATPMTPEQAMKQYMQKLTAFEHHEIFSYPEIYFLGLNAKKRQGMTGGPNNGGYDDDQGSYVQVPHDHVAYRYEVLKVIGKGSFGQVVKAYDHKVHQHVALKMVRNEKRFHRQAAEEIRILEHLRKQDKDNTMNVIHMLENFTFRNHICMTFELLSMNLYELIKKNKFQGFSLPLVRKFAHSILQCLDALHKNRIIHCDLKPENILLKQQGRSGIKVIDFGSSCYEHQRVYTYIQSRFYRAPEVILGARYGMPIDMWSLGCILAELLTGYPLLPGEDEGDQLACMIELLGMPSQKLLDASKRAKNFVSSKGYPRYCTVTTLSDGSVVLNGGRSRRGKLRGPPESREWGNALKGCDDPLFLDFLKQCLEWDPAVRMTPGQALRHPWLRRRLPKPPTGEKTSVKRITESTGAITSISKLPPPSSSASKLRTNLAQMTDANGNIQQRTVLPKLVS
CSNK1G3, sequence (Q9Y6M4 whole entry, looked up): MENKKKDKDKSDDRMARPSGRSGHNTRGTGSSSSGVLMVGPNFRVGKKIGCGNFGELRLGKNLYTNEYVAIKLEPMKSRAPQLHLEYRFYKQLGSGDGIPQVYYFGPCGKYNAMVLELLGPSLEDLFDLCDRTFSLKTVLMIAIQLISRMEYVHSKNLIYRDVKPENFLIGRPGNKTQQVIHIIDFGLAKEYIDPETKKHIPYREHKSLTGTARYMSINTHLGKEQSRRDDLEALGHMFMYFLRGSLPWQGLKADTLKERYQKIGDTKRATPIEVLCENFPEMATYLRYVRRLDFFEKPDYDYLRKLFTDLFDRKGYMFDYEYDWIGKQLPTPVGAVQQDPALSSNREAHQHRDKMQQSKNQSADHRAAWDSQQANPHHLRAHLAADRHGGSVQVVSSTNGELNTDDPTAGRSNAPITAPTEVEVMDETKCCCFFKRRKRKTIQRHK
ROCK2, sequence (O75116 whole entry, looked up): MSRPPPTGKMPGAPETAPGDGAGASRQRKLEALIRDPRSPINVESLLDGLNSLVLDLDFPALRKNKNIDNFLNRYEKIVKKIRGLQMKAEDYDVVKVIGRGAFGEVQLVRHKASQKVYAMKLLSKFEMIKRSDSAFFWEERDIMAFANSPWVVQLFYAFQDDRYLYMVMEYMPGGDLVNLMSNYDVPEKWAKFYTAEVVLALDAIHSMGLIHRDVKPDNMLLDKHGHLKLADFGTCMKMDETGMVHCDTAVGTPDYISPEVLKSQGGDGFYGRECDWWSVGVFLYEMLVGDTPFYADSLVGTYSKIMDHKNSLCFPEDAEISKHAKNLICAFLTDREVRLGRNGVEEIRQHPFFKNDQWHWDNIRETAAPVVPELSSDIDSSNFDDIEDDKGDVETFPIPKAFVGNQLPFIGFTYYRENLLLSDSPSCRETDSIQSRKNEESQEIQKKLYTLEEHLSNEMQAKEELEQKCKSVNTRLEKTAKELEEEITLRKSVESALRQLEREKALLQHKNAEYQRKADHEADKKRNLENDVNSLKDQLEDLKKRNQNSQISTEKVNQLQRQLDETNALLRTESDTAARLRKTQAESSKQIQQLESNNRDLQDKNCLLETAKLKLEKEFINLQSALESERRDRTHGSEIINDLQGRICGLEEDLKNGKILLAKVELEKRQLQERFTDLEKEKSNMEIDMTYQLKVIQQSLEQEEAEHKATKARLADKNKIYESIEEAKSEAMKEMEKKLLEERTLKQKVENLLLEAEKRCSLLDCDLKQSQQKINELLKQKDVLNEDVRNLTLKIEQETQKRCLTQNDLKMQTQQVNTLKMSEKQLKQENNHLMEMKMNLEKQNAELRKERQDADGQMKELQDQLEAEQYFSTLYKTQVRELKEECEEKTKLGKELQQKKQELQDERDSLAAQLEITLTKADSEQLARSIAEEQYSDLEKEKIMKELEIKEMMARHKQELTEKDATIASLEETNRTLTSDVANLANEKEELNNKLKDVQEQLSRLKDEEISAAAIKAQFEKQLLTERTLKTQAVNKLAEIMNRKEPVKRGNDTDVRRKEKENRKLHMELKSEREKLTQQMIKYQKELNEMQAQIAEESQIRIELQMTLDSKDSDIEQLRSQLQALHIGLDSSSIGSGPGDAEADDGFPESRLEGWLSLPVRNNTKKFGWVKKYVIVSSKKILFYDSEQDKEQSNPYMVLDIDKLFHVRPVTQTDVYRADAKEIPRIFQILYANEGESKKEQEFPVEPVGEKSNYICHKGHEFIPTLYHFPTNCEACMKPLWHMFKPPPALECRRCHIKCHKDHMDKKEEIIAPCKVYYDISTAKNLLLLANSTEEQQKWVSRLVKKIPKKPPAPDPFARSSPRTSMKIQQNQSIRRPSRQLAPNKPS
RNASEL, sequence (Q05823 whole entry): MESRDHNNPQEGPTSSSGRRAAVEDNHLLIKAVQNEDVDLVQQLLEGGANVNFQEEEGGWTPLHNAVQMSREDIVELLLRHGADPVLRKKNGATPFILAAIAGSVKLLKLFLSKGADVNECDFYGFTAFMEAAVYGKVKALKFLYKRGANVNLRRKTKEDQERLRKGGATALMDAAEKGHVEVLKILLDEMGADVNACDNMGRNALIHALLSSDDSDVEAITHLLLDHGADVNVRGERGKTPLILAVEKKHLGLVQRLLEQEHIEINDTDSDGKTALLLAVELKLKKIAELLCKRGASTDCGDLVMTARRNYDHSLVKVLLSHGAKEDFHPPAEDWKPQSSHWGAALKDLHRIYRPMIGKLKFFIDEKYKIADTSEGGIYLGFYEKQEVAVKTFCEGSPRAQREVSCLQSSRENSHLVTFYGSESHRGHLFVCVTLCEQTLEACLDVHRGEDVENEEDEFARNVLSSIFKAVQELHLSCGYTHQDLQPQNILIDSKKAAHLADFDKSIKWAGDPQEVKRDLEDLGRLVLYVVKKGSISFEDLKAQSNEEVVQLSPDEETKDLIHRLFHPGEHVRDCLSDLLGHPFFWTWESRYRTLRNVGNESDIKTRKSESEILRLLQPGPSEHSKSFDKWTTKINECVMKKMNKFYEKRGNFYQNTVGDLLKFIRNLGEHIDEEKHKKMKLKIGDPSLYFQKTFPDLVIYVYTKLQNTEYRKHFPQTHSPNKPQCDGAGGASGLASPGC
CSNK1G1, sequence (Q9HCP0 whole entry, looked up): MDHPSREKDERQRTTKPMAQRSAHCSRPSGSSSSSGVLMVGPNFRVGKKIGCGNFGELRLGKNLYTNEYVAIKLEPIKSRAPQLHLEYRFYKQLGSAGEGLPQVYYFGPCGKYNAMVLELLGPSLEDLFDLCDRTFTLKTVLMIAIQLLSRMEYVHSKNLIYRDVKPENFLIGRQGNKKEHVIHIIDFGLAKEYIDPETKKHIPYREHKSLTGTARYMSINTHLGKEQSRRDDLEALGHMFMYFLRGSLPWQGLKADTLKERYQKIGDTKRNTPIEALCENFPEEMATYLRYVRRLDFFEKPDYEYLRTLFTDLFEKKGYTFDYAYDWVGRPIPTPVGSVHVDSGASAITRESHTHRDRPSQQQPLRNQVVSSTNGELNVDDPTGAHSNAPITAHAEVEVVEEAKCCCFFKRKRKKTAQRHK
CDK9, sequence (P50750 whole entry): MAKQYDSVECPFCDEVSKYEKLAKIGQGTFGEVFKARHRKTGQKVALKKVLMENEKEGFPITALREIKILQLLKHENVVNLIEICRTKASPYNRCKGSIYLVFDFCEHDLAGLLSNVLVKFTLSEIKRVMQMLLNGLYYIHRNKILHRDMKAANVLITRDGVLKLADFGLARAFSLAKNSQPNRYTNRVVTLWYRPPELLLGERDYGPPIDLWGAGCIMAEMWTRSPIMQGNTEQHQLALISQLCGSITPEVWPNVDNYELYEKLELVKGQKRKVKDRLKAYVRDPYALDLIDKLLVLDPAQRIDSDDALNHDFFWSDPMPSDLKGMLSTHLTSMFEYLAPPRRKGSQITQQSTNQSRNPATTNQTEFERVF
CSNK1G2, sequence (P78368 whole entry, looked up): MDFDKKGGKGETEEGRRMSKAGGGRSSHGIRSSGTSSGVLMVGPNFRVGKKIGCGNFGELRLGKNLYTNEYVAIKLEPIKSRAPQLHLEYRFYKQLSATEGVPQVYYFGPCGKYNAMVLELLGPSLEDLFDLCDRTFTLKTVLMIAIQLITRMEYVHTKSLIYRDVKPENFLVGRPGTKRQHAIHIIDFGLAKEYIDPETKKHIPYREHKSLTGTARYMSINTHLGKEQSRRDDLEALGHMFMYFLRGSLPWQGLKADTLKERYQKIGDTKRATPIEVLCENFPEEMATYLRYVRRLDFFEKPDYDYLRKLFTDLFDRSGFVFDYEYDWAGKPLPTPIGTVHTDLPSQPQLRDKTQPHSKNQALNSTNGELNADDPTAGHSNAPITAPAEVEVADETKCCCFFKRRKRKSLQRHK
UHMK1, sequence (Q8TAS1 whole entry): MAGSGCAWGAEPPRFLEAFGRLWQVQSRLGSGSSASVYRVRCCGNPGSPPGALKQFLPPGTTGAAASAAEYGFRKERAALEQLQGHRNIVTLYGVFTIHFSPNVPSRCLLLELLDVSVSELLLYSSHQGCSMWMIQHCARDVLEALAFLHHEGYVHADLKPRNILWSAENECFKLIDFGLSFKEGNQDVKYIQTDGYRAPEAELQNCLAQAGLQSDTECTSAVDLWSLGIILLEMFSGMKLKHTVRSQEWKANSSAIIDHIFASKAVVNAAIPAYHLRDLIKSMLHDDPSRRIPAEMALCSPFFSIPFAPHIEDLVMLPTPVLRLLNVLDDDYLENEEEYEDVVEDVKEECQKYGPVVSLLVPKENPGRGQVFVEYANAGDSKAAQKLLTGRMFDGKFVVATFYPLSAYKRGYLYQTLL

COc1ccc(-c2ccc3c(N4CCOC[C@@H]4C)nc(N4CCOC[C@@H]4C)nc3n2)cc1CO [AZD8055]
< 6: [1] | [2] | [3]

CCNC(=O)Nc1ccc(-c2nc(N3CCOC[C@@H]3C)c3c(n2)C(C)(C)S(=O)(=O)C3)cc1 [CZ415]
< 6: [4] | [5] | [6] | [7] | [8] | [9] | [10] | [11] | [12] | [13] | [14] | [15] | [16]
